Laboratory results: EP4818172A1, “ASCORBIC ACID DERIVATIVES AND COSMETIC CONTAINING SAME” (Seiwa Kasei Co., Ltd., priority 2023, dated 2025)

Tests used:
[1] = test system: Normal human dermal fibroblasts (NHDF); experiment: Hyaluronic acid production promoting effect (ELISA of supernatant); type: cell-based; conditions: sample at 10 mM or less in serum-free D-MEM, cultured 48 hours, % of control group (100%), N=3
How it was run: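 NHDF pre-incubated 24 h in D-MEM/5% FBS, then exposed to samples (10 mM or less) in serum-free D-MEM for 48 h. Supernatant hyaluronic acid measured by ELISA, triplicate. Output expressed as % of untreated control (control = 100%), graded ±/+/++ at <100%, 100-120%, >120%.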

[2] = Stability test -2: residual rate in cream of pH 7 or 9 stored at 50°C; type: physicochemical; conditions: cream with 4.0 W/W% derivative
How it was run: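 Each derivative was formulated into a cream by heating and mixing two component phases, cooling, then adding a third component, giving a final pH of 7 or 9. The creams were kept at 50°C for up to 4 weeks, and the remaining amount of derivative was measured to give a residual rate.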

[3] = Stability test -2: odor and coloration of cream stored at 50°C; type: physicochemical; conditions: Test Example 2, cream stored at 50°C, total score of 10 panelists
How it was run: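 Creams at pH 7 or 9 containing the test samples stored at 50°C for 4 weeks. Odor and coloration scored by 10 panelists against the freshly prepared cream; total scores classed as ○ (25 or more), △ (16-24) or × (15 or less).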

[4] = test system: Normal human dermal fibroblasts; experiment: Collagen production promoting effect (ELISA of free collagen in supernatant); type: cell-based; conditions: sample at 10 mM or less, cultured 48 hours, % of control group (100%), N=3
Procedure: Normal human dermal fibroblasts were prepared in D-MEM containing 5% (v/v) fetal bovine serum to a cell density of 2.5 × 10^4 cell s /well, and then pre-incubated for 24 hours on a 96-well plate. After removing the medium, samples prepared to a predetermined concentration in D-MEM containing 5% (v/v) fetal bovine serum were added to each well and cultured for 48 hours. After the culture was completed, the amount of free collagen in the supernatant was quantified by ELISA. Measurements were performed in triplicate (N=3).
The amount of collagen produced when the sample was measured at a concentration of 10 mM or less was compared with that of the control group, and the results (% values when the control group was set to 100%) are shown in Table 17 based on the following criteria. • <100%: ± • 100-140%: + • 140%<: ++ [Table 17]

[5] = test system: Normal human epidermal keratinocytes; experiment: Antioxidant effect: ROS production inhibition after H2O2 (DCFHDA probe); type: cell-based; conditions: sample at 10 mM or less, 24 hours, then 0.2 mM H2O2 for 2 hours, N=4
Procedure: Normal human epidermal keratinocytes were seeded onto a 96-well plate using KG2 medium at a cell density of 2.0 × 10^4 cells/well. After 24 hours of pre-incubation, samples adjusted to a predetermined concentration in KG2 medium were added to each well. After 24 hours of incubation, the medium was removed, followed by washing with HBSS(-) and the incorporation of the ROS-reactive fluorescent probe DCFHDA for 30 minutes. The cells were again washed with HBSS(-), treated with 0.2 mM H2O2, and incubated for 2 hours. The fluorescence intensity was measured, and the amount of ROS produced per unit protein was calculated by dividing the fluorescence intensity by the amount of protein quantified by the BCA method, resulting in an analytical value of 1. Furthermore, the amount of ROS production calculated without adding the sample adjusted to a predetermined concentration using the above test method was set to analytical value 2; and the amount of ROS production calculated without adding the sample or 0.2 mM H2O2 was set to analytical value 3.
ROS production inhibition rate (%) was calculated using the following formula. The higher the ROS production inhibition rate, the greater the antioxidant effect can be evaluated to be.
ROS production inhibition rate (%) = [(analysis value 2) - (analysis value 1)] / [(analysis value 2) - (analysis value 3)] × 100
The ROS production inhibition rate when the sample was measured at a concentration of 10 mM or less was evaluated as follows. Note that the measurement was performed in N=4. • <20%: + • 20-40%: ++ • 40%<: +++ [Table 21]

## CCCCCCCC(=O)OCC(OC(=O)CCCCCCC)C1OC(=O)C2=C1OCCCO2 (stereo not shown) [synthesis example 23, 5,6-O-dioctanoyl-2,3-O-(1,3-propanediyl) ascorbic acid]
[1]
  Hyaluronic acid production-promoting effect: + (100-120%)
[2]; pH7, stored at 50°C
  Residual Rate After 2 weeks: ⊚ (95% or more)
  Residual Rate After 4 weeks: ⊚ (95% or more)
[2]; pH9, stored at 50°C
  Residual Rate After 2 weeks: ⊚ (95% or more)
  Residual Rate After 4 weeks: ⊚ (95% or more)
[3]
  Coloration After 2 weeks: ○ (Total score of 10 panelists is 25 or more)
  Odor After 2 weeks: ○ (Total score of 10 panelists is 25 or more)
  Coloration After 4 weeks: ○ (Total score of 10 panelists is 25 or more)
  Odor After 4 weeks: Δ
[4]
  Collagen production-promoting effect: ++ (140%<)
[5]
  Antioxidant effect (ROS production inhibition rate): + (<20%)

## CCCCCCCCCCCCCCCC(=O)OCC(O)C1OC(=O)C2=C1OCCCCO2 (stereo not shown) [synthetic example 15, 6-O-palmitoyl-2,3-O-(1,4-butanediyl) ascorbic acid]
[1]
  Hyaluronic acid production-promoting effect: ++ (120%<)
[2]; pH7, stored at 50°C
  Residual Rate After 2 weeks: ⊚ (95% or more)
  Residual Rate After 4 weeks: ⊚ (95% or more)
[2]; pH9, stored at 50°C
  Residual Rate After 2 weeks: ⊚ (95% or more)
  Residual Rate After 4 weeks: ⊚ (95% or more)
[3]
  Coloration After 2 weeks: ○ (Total score of 10 panelists is 25 or more)
  Odor After 2 weeks: ○ (Total score of 10 panelists is 25 or more)
  Coloration After 4 weeks: ○ (Total score of 10 panelists is 25 or more)
  Odor After 4 weeks: Δ
[4]
  Collagen production-promoting effect: ++ (140%<)
[5]
  Antioxidant effect (ROS production inhibition rate): + (<20%)

## CCCC(=O)OCC(OC(=O)CCC)C1OC(=O)C2=C1OCCCCO2 (stereo not shown) [synthesis example 10, 5,6-O-dibutanoyl-2,3-O-(1,4-butanediyl) ascorbic acid]
[1]
  Hyaluronic acid production-promoting effect: ++ (120%<)
[2]; pH7, stored at 50°C
  Residual Rate After 2 weeks: ⊚ (95% or more)
  Residual Rate After 4 weeks: ⊚ (95% or more)
[2]; pH9, stored at 50°C
  Residual Rate After 2 weeks: ⊚ (95% or more)
  Residual Rate After 4 weeks: ⊚ (95% or more)
[3]
  Coloration After 2 weeks: ○ (Total score of 10 panelists is 25 or more)
  Odor After 2 weeks: ○ (Total score of 10 panelists is 25 or more)
  Coloration After 4 weeks: ○ (Total score of 10 panelists is 25 or more)
  Odor After 4 weeks: Δ
[4]
  Collagen production-promoting effect: ++ (140%<)
[5]
  Antioxidant effect (ROS production inhibition rate): + (<20%)

## CCCC(=O)OCC(O)C1OC(=O)C2=C1OCCCCO2 (stereo not shown) [synthesis example 9, 6-O-butanoyl-2,3-O-(1,4-butanediyl) ascorbic acid]
[1]
  Hyaluronic acid production-promoting effect: ++ (120%<)
[2]; pH7, stored at 50°C
  Residual Rate After 2 weeks: ⊚ (95% or more)
  Residual Rate After 4 weeks: ⊚ (95% or more)
[2]; pH9, stored at 50°C
  Residual Rate After 2 weeks: ⊚ (95% or more)
  Residual Rate After 4 weeks: ⊚ (95% or more)
[3]
  Coloration After 2 weeks: ○ (Total score of 10 panelists is 25 or more)
  Odor After 2 weeks: ○ (Total score of 10 panelists is 25 or more)
  Coloration After 4 weeks: ○ (Total score of 10 panelists is 25 or more)
  Odor After 4 weeks: Δ
[4]
  Collagen production-promoting effect: + (100-140%)
[5]
  Antioxidant effect (ROS production inhibition rate): ++ (20-40%)

## CC(C)CCCCCCCCCCCCCCC(=O)OC[C@H](O)[C@H]1OC(=O)C2=C1OCCCCO2 [synthesis example 17, 6-O-isostearoyl-2,3-O-(1,4-butanediyl) ascorbic acid]
[1]
  Hyaluronic acid production-promoting effect: ++ (120%<)
[2]; pH7, stored at 50°C
  Residual Rate After 2 weeks: ⊚ (95% or more)
  Residual Rate After 4 weeks: ⊚ (95% or more)
[2]; pH9, stored at 50°C
  Residual Rate After 2 weeks: ⊚ (95% or more)
  Residual Rate After 4 weeks: ⊚ (95% or more)
[3]
  Coloration After 2 weeks: ○ (Total score of 10 panelists is 25 or more)
  Odor After 2 weeks: ○ (Total score of 10 panelists is 25 or more)
  Coloration After 4 weeks: ○ (Total score of 10 panelists is 25 or more)
  Odor After 4 weeks: Δ
[4]
  Collagen production-promoting effect: ++ (140%<)
[5]
  Antioxidant effect (ROS production inhibition rate): + (<20%)
